We go through one compound from patent USRE39352E1, “Creatine amidinohydrolase, production thereof and use thereof” (Toyo Boseki Kabushiki Kaisha, priority 1996, dated 2006).

“And” between values parts separate entries of the source, which are not always exact repeats. Equal values may be shown once.

Assay [1] has as its system creatine amidinohydrolase derived from bacteria belonging to the genus Corynebacterium. The note with it: Japanese Patent Examined Publication No. 76915/1991; cited from earlier work.
For assay [2], the system named is Pseudomonas putida creatine amidinohydrolase. As to conditions: residual creatine determined with α-naphthol and diacetyl; Archives Biochemistry and Biophysics 177, 508-515 (1976); read-out: apparent Km value for creatine; cited from earlier work.
The subject of assay [3] is Alcaligenes faecalis TE3581 creatine amidinohydrolase mutant pCRH273M2 (FERM BP-5375), purified from Escherichia coli JM109 (pCRH273M2). Briefly: Km value for creatine, coupling assay using sarcosine oxidase and peroxidase (mutant pCRH273M2). The format is biochemical. As to conditions: coupling assay with sarcosine oxidase and peroxidase, pH 7.6, 37° C.
Assay [4] deals with Alcaligenes faecalis TE3581 creatine amidinohydrolase mutant pCRH273M3 (FERM BP-5376), purified from Escherichia coli JM109 (pCRH273M3). The experiment in a line: Km value for creatine, coupling assay using sarcosine oxidase and peroxidase (mutant pCRH273M3). It counts as biochemical. As to conditions: coupling assay with sarcosine oxidase and peroxidase, pH 7.6, 37° C.
The subject of assay [5] is creatine amidinohydrolase derived from bacteria belonging to the genus Actinobacillus. As to conditions: Japanese Patent Examined Publication No. 76915/1991; cited from earlier work.
Assay [6] relates to creatine amidinohydrolase derived from bacteria belonging to the genus Micrococcus. As to conditions: Japanese Patent Examined Publication No. 76915/1991; cited from earlier work.
Assay [7] concerns Alcaligenes faecalis TE3581 (FERM P-14237) creatine amidinohydrolase, wild, SEQ ID NO: 1 (gene SEQ ID NO: 2). The experiment in a line: Km value for creatine, coupling assay using sarcosine oxidase and peroxidase (wild enzyme). The note with it: coupling assay with sarcosine oxidase and peroxidase, pH 7.6, 37° C. The format is biochemical. The source says: While the gene encoding a wild creatine amidinohydrolase which is to be mutated is not particularly limited, in one embodiment of the present invention, it is the creatine amidinohydrolase gene depicted in the Sequence Listing•SEQ ID:No.2, which is derived from Alcaligenes•faecalis TE3581 (FERM P-14237).
In another embodiment of the present invention, a novel creatine amidinohydrolase having a smaller Km value for creatine than a wild creatine amidinohydrolase is produced by mutating the gene encoding the amino acid sequence depicted in the Sequence Listing•SEQ ID No:1. […]
In the Examples, the activity of creatine amidinohydrolase was determined as follows. […]
The above-mentioned reaction mixture (3 ml) is taken with a cuvette (d=1 cm) and preliminarily heated to 37° C. for about 3 minutes. […] Using water as a control, changes in absorbance at 500 nm are recorded for 5 minutes using a spectrophotometer controlled to 37° C. Based on the linear portion of 2-5 minutes thereof, changes in absorbance per minute are determined (ΔOD) test.
The blank test is performed in the same manner as above except that a solution (0.1 ml, 50 mM potassium phosphate buffer, pH 7.5) for diluting the enzyme is used instead of the enzyme solution and changes in absorbance per minute are determined (ΔOD blank).
The enzyme amount is calculated by inserting each measure into the following formula. […]

Assay [8] relates to creatine amidinohydrolase produced by bacteria belonging to the genus Alcaligenes (Japanese Patent Unexamined Publication No. 63363/1994). The note with it: cited from earlier work.
For assay [9], the system named is creatine amidinohydrolase derived from bacteria belonging to the genus Bacillus. As to conditions: Japanese Patent Examined Publication No. 76915/1991; cited from earlier work.
Assay [10] has as its system Alcaligenes faecalis TE3581 creatine amidinohydrolase mutant pCRH273M1 (FERM BP-5374), purified from Escherichia coli JM109 (pCRH273M1). Briefly: Km value for creatine, coupling assay using sarcosine oxidase and peroxidase (mutant pCRH273M1). The format is biochemical. As to conditions: coupling assay with sarcosine oxidase and peroxidase, pH 7.6, 37° C.

As a reminder, the Km is the concentration of substrate that gives half-maximal velocity.

`CN(CC(=O)O)C(=N)N` [creatine]: the Km was around 20 mM in assay [1]; 1.33 mM in assay [2]; ~4.5 mM and 4.5 mM in assay [3]; ~9 mM and 9 mM in assay [4]; around 20 mM in [5]; around 20 mM in assay [6]. For the same compound, the Km is 15.2 mM in assay [7]; around 15.2 mM in assay [8]; around 20 mM in assay [9]; ~6.5 mM and 6.5 mM in assay [10].
